Structures are written as SMILES.

Data set [1] in a line: UV-vis absorption spectrum in THF solution. The note with it: THE (THF) solution, 10 μM. Format: physicochemical.
Data set [2] in a line: AIE property: photoluminescence in THF/water mixtures with varying water fraction. Format: physicochemical. The method, then:
FIG. 4 depicts (A) an image of TSPCI powder in daylight; (B) the UV-vis absorption spectrum of TSPCI; (C) the photoluminescence (PL) spectra of TSPCI in THF and THF/water mixtures with different water fractions (fw); and (D) the plot of relative PL intensities at 950 nm versus the fw (concentration: 10 μM; excitation wavelength: 808 nm).
The AIE property of TSPCI was investigated by varying the water fractions (fw) in tetrahydrofuran (THF)/water mixtures (FIG. 4C). […] The strongest emission intensity at ˜950 nm reached its maximum value at 90 vol % water content, which was ˜35-fold higher than that in the pure THF due to the restriction of intramolecular rotation ([…]).

In data set [3] the test system is nude mouse. Nature of the data set: In vivo dynamic NIR-II fluorescence imaging after intravenous injection. The note with it: i.v. injection of TSPCI solution in water, images 1-5 s after injection, 808 nm excitation, 1000 nm long-pass filter. The method, then:
NIR-I fluorescence imaging was performed using the Maestro in vivo imaging system (CRI, Inc.). To acquire fluorescence of an NIR-I AIEgen (TTD), a 605 nm (+25 nm) bandpass filter and a 645 nm longpass filter were selected as the excitation filter and the emission filter, respectively. NIR-II imaging was performed using the home-built NIR-II in vivo imaging system. The excitation light was provided by an 808 nm diode laser. The emitted light from the TSPCI was filtered through a 1000 nm long-pass filter, which was coupled with a two-dimensional InGaAs array camera (with spectral response range of 900-1700 nm, Photonic Science) for NIR-II fluorescence signal collection. The excitation power density at the imaging plane was 6.4 mW/cm^2, much lower than the safe exposure limit of 330 mW/cm^2 at 808 nm determined by the International Commission on Nonionizing Radiation Protection. […]
TSPCI was added to water under sonication to provide a TSPCI solution. […] FIG. 7A depicts an NIR-II fluorescence image of the nude mouse before intravenous injection of TSPCI solution. FIG. 7B depicts an NIR-II fluorescence image of the nude mouse one second after injection of TSPCI solution. FIG. 7C depicts an NIR-II fluorescence image of the nude mouse two seconds after injection of TSPCI solution. FIG. 7D depicts an NIR-II fluorescence image of the nude mouse three seconds after injection of TSPCI solution. […]

For the molecule `N#CC(C#N)=C1C(=C2C=C(/C=C/c3ccc(N(c4ccccc4)c4ccccc4)cc3)OC(/C=C/c3ccc(N(c4ccccc4)c4ccccc4)cc3)=C2)C(=C(C#N)C#N)c2ccccc21` [TSPCI], the maximal absorption wavelength in data set [1] was found to be 682 nm. The “wavelength of strongest emission intensity” value in data set [2] (THF/water mixtures, excitation 808 nm) is reported as ~950 nm. In addition, in data set [2] (aggregate state, bright emission, NIR-II), the “emission spectrum range in aggregate state” value was 1000-1700 nm. Moreover, in data set [2] (at ~950 nm, 90 vol % water content in THF/water, 10 μM, excitation 808 nm), the “emission intensity enhancement versus pure THF” value was ~35 fold. In addition, the “emission in pure THF solution” value in data set [2] (pure THF (fw=0)) was “no emission was observed”. In addition, the “in vivo NIR-II imaging performance” value in data set [3] was “high contrast and penetration depth”.

The values above are taken from US12023387B2, “NIR-II emissive luminogens” (THE HONG KONG UNIVERSTIY OF SCIENCE AND TECHNOLOGY, priority 2018, dated 2024).
